Data published in patent publication US20180179198A1, “TRICYCLIC MODULATORS OF TNF SIGNALING” (AbbVie Inc., priority 2015, published 2018).
Where two headings read alike, the source gives them in different places.

Target: TNFα trimer (Homo sapiens, UniProt P01375)
Assay: TNFα FP Competitive Binding Assay
Outline: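 Compounds, 12-point 1:3 dilutions topping at 100 μM (2.0% DMSO) or 338 μM (3.4% DMSO) final, compete with 1 nM fluorescent probe for 20 nM TNFα trimer in HEPES/NaCl/EDTA/Triton buffer. After 18-24 h incubation at 37 °C plus 1 h rt equilibration, background-subtracted polarization is read and fitted with variable slope.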

[1] = TNFα FP competitive binding assay, class symbols A/B/C, read-out: TNF IC50
[2] = fluorescence polarization competition, 20 nM TNFα trimer, 1 nM OregonGreen488 probe, read-out: TNF IC50 (TNFα FP binding assay IC50)

Chain of TNFα trimer (P01375 77-233 limits assumed): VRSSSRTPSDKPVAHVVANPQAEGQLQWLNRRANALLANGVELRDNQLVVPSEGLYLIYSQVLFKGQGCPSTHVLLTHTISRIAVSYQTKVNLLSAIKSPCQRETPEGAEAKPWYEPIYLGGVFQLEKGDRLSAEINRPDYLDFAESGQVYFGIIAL

IC50 [2]	SMILES	further results
10 to 100 µM	c1ccc([C@@H]2CCc3nc4ccc(-c5cnc(N6CCOCC6)nc5)cc4n32)cc1 [C.1]	–
1 to 10 µM	c1ccc(C2CCOc3nc4ccc(-c5cnc(N6CCOCC6)nc5)cn4c32)cc1 (stereo not drawn) [D.4]	–
< 1 µM	COc1ccccc1C1CCOc2nc3ccc(-c4cnc(N5CCOCC5)nc4)cn3c21 (stereo not drawn) [D.5]	–
< 1 µM	COc1ccccc1C1CCc2nc3ccc(-c4cnc(C(C)(C)O)nc4)cc3n21 (stereo not drawn) [E.3]	–
1 to 10 µM	CC(C)(O)c1ncc(-c2ccc3nc4n(c3n2)C2(CCOc3ccccc32)COC4)cn1 (stereo not drawn) [E.5, 2-(5-(6′,8′-Dihydrospiro[chroman-4,9′-pyrido[3′,2′:4,5]imidazo[2,1-c][1,4]oxazin]-2′-yl)pyrimidin-2-yl)propan-2-ol]	–
< 1 µM	CC(C)(O)c1ncc(-c2ccc3nc4n(c3c2)[C@@H](c2ccccc2)CC4)cn1 [Example 2, (R)-2-(5-(1-Phenyl-2,3-dihydro-1H-benzo[d]pyrrolo[1,2-a]imidazol-7-yl)pyrimidin-2-yl)propan-2-ol]	–
< 1 µM	OC1CCN(c2ncc(-c3ccc4nc5n(c4c3)[C@@H](c3ccccc3)COC5)cn2)CC1 [Example 4, (S)-1-(5-(4-Phenyl-3,4-dihydro-1H-benzo[4,5]imidazo[2,1-c][1,4]oxazin-7-yl)pyrimidin-2-yl)piperidin-4-ol]	–
< 1 µM	CCOC(=O)CNc1ncc(-c2ccc3nc4c(n3c2)C(c2ccccc2OC)CCC4)cn1 (stereo not drawn) [Example 7, Ethyl 2-[[5-[9-(2-methoxyphenyl)-6,7,8,9-tetrahydropyrido[1,2-a]benzimidazol-2-yl]pyrimidin-2-yl]amino]acetate]	–
1 to 10 µM	COc1ccccc1C1CCCc2nc3ccc(-c4cnc(NCC(=O)O)nc4)cn3c21 (stereo not drawn) [Example 8, 2-((5-(9-(2-methoxyphenyl)-6,7,8,9-tetrahydrobenzo[4,5]imidazo[1,2-a]pyridin-2-yl)pyrimidin-2-yl)amino)acetic acid]	–
< 1 µM	O=C1NCC2CN(c3ncc(-c4ccc5nc6n(c5c4)[C@@H](c4ccccc4)COC6)cn3)CCN12 (stereo partly drawn) [Example 9, 7-(5-((S)-4-Phenyl-3,4-dihydro-1H-benzo[4,5]imidazo[2,1-c][1,4]oxazin-7-yl)pyrimidin-2-yl)hexahydroimidazo[1,5-a]pyrazin-3(2H)-one]	–
< 1 µM	COc1ccccc1C1CCc2nc3ccc(-c4cnc(C(C)(C)O)nc4)cn3c21 (stereo not drawn) [Example 10, 2-(5-(1-(2-Methoxyphenyl)-2,3-dihydro-1H-cyclopenenta[4,5]imidazo[1,2-a]pyridin-7-yl)pyrimidin-2-yl)propan-2-ol]	–
10 to 100 µM	COc1ccccc1[C@@H]1CCc2nc3ccc(-c4cnc(C(C)(C)O)nc4)cn3c21 [Example 11, (S)-2-(5-(1-(2-Methoxyphenyl)-2,3-dihydro-1H-cyclopenta[4,5]imidazo[1,2-a]pyridin-7-yl)pyrimidin-2-yl)propan-2-ol]	–
< 1 µM	COc1ccccc1[C@H]1CCc2nc3ccc(-c4cnc(C(C)(C)O)nc4)cn3c21 [Example 12, (R)-2-(5-(1-(2-methoxyphenyl)-2,3-dihydro-1H-cyclopenta[4,5]imidazo[1,2-a]pyridin-7-yl)pyrimidin-2-yl)propan-2-ol]	–
< 1 µM	CC(C)(O)c1ncc(-c2ccc3nc4n(c3c2)[C@@H](c2ccccc2OC(F)F)COC4)cn1 [Example 13, (S)-2-(5-(4-(2-(Difluoromethoxy)phenyl)-3,4-dihydro-1H-benzo[4,5]imidazo[2,1-c][1,4]oxazin-7-yl)pyrimidin-2-yl)propan-2-ol]	–
< 1 µM	COc1ccccc1C1CCCc2nc3ccc(-c4cnc(N5CCOCC5)nc4)cn3c21 (stereo not drawn) [Example 15, 4-(5-(9-(2-Methoxyphenyl)-6,7,8,9-tetrahydrobenzo[4,5]imidazo[1,2-a]pyridin-2-yl)pyrimidin-2-yl)morpholine]	–

Second part, the compound before the results:

SMILES	IC50 [2]	further results
C[C@@H]1CN(C(=O)COC(C)(C)C)CCN1c1ncc(-c2ccc3nc4n(c3n2)C2(COC4)COc3ccccc32)cn1 (stereo partly drawn) [BG.5, 1-((3R)-4-(5-(2H,6′H,8′H-Spiro[benzofuran-3,9′-pyrido[3′,2′:4,5]imidazo[2,1-c][1,4]oxazin]-2′-yl)pyrimidin-2-yl)-3-methylpiperazin-1-yl)-2-(tert-butoxy)ethan-1-one]	–	IC50 [1]: 1 to 10 µM
C[C@@H]1CN(c2ncc(-c3ccc4nc5n(c4n3)C3(COC5)COc4ccccc43)cn2)CCN1C(=O)COC(C)(C)C (stereo partly drawn) [BG.6, 1-((2R)-4-(5-(2H,6′H,8′H-Spiro[benzofuran-3,9′-pyrido[3′,2′:4,5]imidazo[2,1-c][1,4]oxazin]-2′-yl)pyrimidin-2-yl)-2-methylpiperazin-1-yl)-2-(tert-butoxy)ethan-1-one]	–	IC50 [1]: < 1 µM
C[C@H]1CN(C(=O)CO)CCN1c1ncc(-c2ccc3nc4n(c3n2)C2(COC4)COc3ccccc32)cn1 (stereo partly drawn) [BH.1]	–	IC50 [1]: < 1 µM
C[C@@H]1CN(C(=O)CO)CCN1c1ncc(-c2ccc3nc4n(c3n2)C2(COC4)COc3ccccc32)cn1 (stereo partly drawn) [BH.2]	–	IC50 [1]: < 1 µM
C[C@@H]1CN(c2ncc(-c3ccc4nc5n(c4n3)C3(COC5)COc4ccccc43)cn2)CCN1C(=O)CO (stereo partly drawn) [BH.3]	–	IC50 [1]: < 1 µM
COC(C)(C)CC(=O)N1CC=C(c2ccc3nc4n(c3n2)C2(COC4)COc3ccccc32)CC1 (stereo not drawn) [BI.1]	–	IC50 [1]: 1 to 10 µM
OC1CCN(c2ncc(-c3ccc4nc5n(c4n3)[C@@]3(COC5)COc4ccccc43)cn2)CC1 [BJ.1]	–	IC50 [1]: < 1 µM
O[C@H]1CC[C@@H](COc2cc(-c3ccc4nc5n(c4n3)[C@@H](c3ccccc3)CC5)ccn2)CC1 [BK.1]	–	IC50 (Table BK, read-out: TNF IC50): < 1 µM
O[C@H]1CC[C@H](COc2cc(-c3ccc4nc5n(c4n3)[C@@H](c3ccccc3)CC5)ccn2)CC1 [BK.2]	–	IC50 (Table BK, read-out: TNF IC50): 1 to 10 µM
OC[C@H]1CC[C@H](COc2cc(-c3ccc4nc5n(c4n3)[C@@H](c3ccccc3)CC5)ccn2)CC1 [BK.3]	–	IC50 (Table BK, read-out: TNF IC50): 1 to 10 µM
C[C@@H]1CN(c2ncc(-c3ccc4nc5n(c4n3)[C@@]3(COC5)COc4ccccc43)cn2)CCN1C(=O)CO [BL.1]	–	IC50 (Table BL, read-out: TNF IC50): < 1 µM
C[C@@H]1CN(c2ncc(-c3ccc4nc5n(c4n3)[C@]3(COC5)COc4ccccc43)cn2)CCN1C(=O)CO [BM.1]	–	IC50 (Table BM, read-out: TNF IC50): 1 to 10 µM
C[C@H]1CN(c2ncc(-c3ccc4nc5n(c4n3)[C@]3(COC5)COc4ccccc43)cn2)CCN1C(=O)CO [BM.2]	–	IC50 (Table BM, read-out: TNF IC50): 1 to 10 µM
COC(=O)CC1CC=C(c2ccc3nc4n(c3n2)[C@@H](c2ccccc2)CC4)CC1 (stereo partly drawn) [BN.1]	–	IC50 (Table BN, read-out: TNF IC50): 1 to 10 µM
OC1CCN(c2ncc(-c3ccc4nc5n(c4n3)C3(COCc4ccccc43)COC5)cn2)CC1 (stereo not drawn) [BO.1]	–	IC50 (Table BO, read-out: TNF IC50): 1 to 10 µM
O=C1NC[C@@H]2CN(c3ncc(-c4ccc5nc6n(c5n4)C4(COCc5ccccc54)COC6)cn3)CCN12 (stereo partly drawn) [BO.2]	–	IC50 (Table BO, read-out: TNF IC50): < 1 µM
c1ccc2c(c1)COCC21COCc2nc3ccc(-c4cnc(N5CCOCC5)nc4)nc3n21 (stereo not drawn) [BP.1]	–	IC50 (Table BP, read-out: TNF IC50): 1 to 10 µM
CC(C)(N)c1ncc(-c2ccc3nc4n(c3n2)[C@@H](c2ccccc2)CC4)cn1 [BQ.1]	–	IC50 (Table BQ, read-out: TNF IC50): 1 to 10 µM
c1ccc([C@H]2CCc3nc4ccc(-c5cnc(N6CCOCC6)nc5)cc4n32)cc1 [D.3]	< 1 µM	–
CC(C)(O)c1ncc(-c2ccc3nc4n(c3c2)C(c2ccccc2)CCC4)cn1 (stereo not drawn) [E.1, 2-(5-(1-Phenyl-1,2,3,4-tetrahydrobenzo[4,5]imidazo[1,2-a]pyridin-8-yl)pyrimidin-2-yl)propan-2-ol]	< 1 µM	–
CC(C)(O)c1ncc(-c2ccc3nc4n(c3c2)C(c2ccccc2O)CCC4)cn1 (stereo not drawn) [E.2]	10 to 100 µM	–
CC(C)(O)c1ncc(-c2ccc3nc4n(c3n2)C2(COC4)COc3ccccc32)cn1 (stereo not drawn) [E.4, 2-(5-(6′,8′-Dihydro-2H-spiro[benzofuran-3,9′-pyrido[3′,2′:4,5]imidazo[2,1-c][1,4]oxazin]-2′-yl)pyrimidin-2-yl)propan-2-ol]	< 1 µM	–
CC(C)(O)c1ncc(-c2ccc3nc4n(c3c2)C(c2ccccc2)CC4)cn1 (stereo not drawn) [Example 1, 2-(5-(1-Phenyl-2,3-dihydro-1H-benzo[d]pyrrolo[1,2-a]imidazol-7-yl)pyrimidin-2-yl)propan-2-ol]	< 1 µM	–
O=C1NCC2CN(c3ncc(-c4ccc5nc6n(c5c4)[C@@H](c4ccccc4)CC6)cn3)CCN12 (stereo partly drawn) [Example 3, 7-(5-((R)-1-Phenyl-2,3-dihydro-1H-benzo[d]pyrrolo[1,2-a]imidazol-7-yl)pyrimidin-2-yl)hexahydroimidazo[1,5-a]pyrazin-3(2H)-one]	< 1 µM	–
COc1ccccc1C1(O)CCCc2nc3ccc(-c4cnc(N5CCOCC5)nc4)cn3c21 (stereo not drawn) [Example 5, 9-(2-Methoxyphenyl)-2-(2-morpholinopyrimidin-5-yl)-6,7,8,9-tetrahydrobenzo[4,5]imidazo[1,2-a]pyridin-9-ol]	1 to 10 µM	–
c1ccc(C2CCc3nc4ccc(-c5cnc(N6CCOCC6)nc5)nc4n32)cc1 (stereo not drawn) [Example 6, 4-(5-(8-Phenyl-7,8-dihydro-6H-pyrrolo[2′,1′:2,3]imidazo[4,5-b]pyridin-2-yl)pyrimidin-2-yl)morpholine]	< 1 µM	–
COc1ccccc1C1=CCCc2nc3ccc(-c4cnc(N5CCOCC5)nc4)cn3c21 [Example 14, 4-(5-(9-(2-Methoxyphenyl)-6,7-dihydrobenzo[4,5]imidazo[1,2-a]pyridin-2-yl)pyrimidin-2-yl)morpholine]	10 to 100 µM	–
COc1ccccc1C1CCCc2nc3ccc(-c4cnc(C(C)(C)O)nc4)cn3c21 (stereo not drawn) [Example 16, 2-(5-(9-(2-Methoxyphenyl)-6,7,8,9-tetrahydrobenzo[4,5]imidazo[1,2-a]pyridin-2-yl)pyrimidin-2-yl)propan-2-ol]	< 1 µM	–
CC(C)(O)c1ncc(-c2ccc3nc4n(c3c2)C(C2CCCCC2)CC4)cn1 (stereo not drawn) [Example 17, 2-(5-(1-Cyclohexyl-2,3-dihydro-H-benzo[d]pyrrolo[1,2-a]imidazol-7-yl)pyrimidin-2-yl)propan-2-ol]	< 1 µM	–
c1ccc(C2CCc3nc4ccc(N5CCN(c6ncccn6)CC5)nc4n32)cc1 (stereo not drawn) [Example 18, 8-Phenyl-2-(4-(pyrimidin-2-yl)piperazin-1-yl)-7,8-dihydro-6H-pyrrolo[2′,1′:2,3]imidazo[4,5-b]pyridine]	1 to 10 µM	–
